Experimental data reported in BindingDB's records for doi:10.1021/jm00381a002 (1985).
Where a SMILES comes first, the peptide text is derived from it.

Target: gastrin/CCK-B receptor (Rattus norvegicus)
Test: Inhibitory activity against binding of [125I](Nle11)-HG-13 to gastrin receptor in vitro

| Structure (SMILES) | IC50 |
| --- | --- |
| CC(C)C[C@H](NC(=O)[C@H](Cc1c[nH]c2ccccc12)NC(=O)OC(C)(C)C)C(=O)N[C@@H](CCC(=O)O)C(N)=O [4-{2-[2-tert-Butoxycarbonylamino-3-(1H-indol-3-yl)-propionylamino]-4-methyl-pentanoylamino}-4-carbamoyl-butyric acid] (HELM PEPTIDE1{[CC(C)(C)OC(=O)[*:2]].W.L.E.[am]}$$$$V2.0) | 20 µM |
| CC(C)C[C@H](NC(=O)[C@H](Cc1c[nH]c2ccccc12)NC(=O)OC(C)(C)C)C(=O)N[C@@H](CC(=O)O)C(=O)N(C)C [3-{2-[2-tert-Butoxycarbonylamino-3-(1H-indol-3-yl)-propionylamino]-4-methyl-pentanoylamino}-N,N-dimethyl-succinamic acid] (HELM PEPTIDE1{[CC(C)(C)OC(=O)[*:2]].W.L.D.[CN(C)[*:1]]}$$$$V2.0) | 100 µM |
| CC[C@H](C)[C@H](NC(=O)[C@H](Cc1c[nH]c2ccccc12)NC(=O)OC(C)(C)C)C(=O)N[C@@H](CC(=O)O)C(N)=O (HELM PEPTIDE1{[CC(C)(C)OC(=O)[*:2]].W.I.D.[am]}$$$$V2.0) | 50 µM |
| CC(C)(C)OC(=O)N[C@@H](Cc1c[nH]c2ccccc12)C(=O)N[C@@H](Cc1ccccc1)C(=O)N[C@@H](CC(=O)O)C(N)=O [3-{2-[2-tert-Butoxycarbonylamino-3-(1H-indol-3-yl)-propionylamino]-3-phenyl-propionylamino}-succinamic acid] (HELM PEPTIDE1{[CC(C)(C)OC(=O)[*:2]].W.F.D.[am]}$$$$V2.0) | 30 µM |
| CC(C)C[C@H](NC(=O)[C@H](Cc1c[nH]c2ccccc12)NC(=O)OCc1ccccc1)C(=O)N[C@@H](CC(=O)O)C(N)=O [3-{2-[2-Benzyloxycarbonylamino-3-(1H-indol-3-yl)-propionylamino]-4-methyl-pentanoylamino}-succinamic acid] (HELM PEPTIDE1{[O=C(OCc1ccccc1)[*:2]].W.L.D.[am]}$$$$V2.0) | 40 µM |
| O=C(N[C@@H](Cc1c[nH]c2ccccc12)C(=O)O)c1ccc(Cl)cc1 [(S)-2-(4-Chloro-benzoylamino)-3-(1H-indol-3-yl)-propionic acid] | 250 µM |
| CSCC[C@H](NC(=O)[C@H](Cc1c[nH]c2ccccc12)NC(=O)CNC(=O)OC(C)(C)C)C(=O)N[C@@H](CC(=O)O)C(N)=O [3-{2-[2-(2-tert-Butoxycarbonylamino-acetylamino)-3-(1H-indol-3-yl)-propionylamino]-4-methylsulfanyl-butyrylamino}-succinamic acid] (HELM PEPTIDE1{[CC(C)(C)OC(=O)[*:2]].G.W.M.D.[am]}$$$$V2.0) | 25 µM |
| CC(C)C[C@H](NC(=O)[C@H](Cc1c[nH]c2ccccc12)NC(=O)OC(C)(C)C)C(=O)N[C@@H](C)C(N)=O [[1-[1-(1-Carbamoyl-ethylcarbamoyl)-3-methyl-butylcarbamoyl]-2-(1H-indol-3-yl)-ethyl]-carbamic acid tert-butyl ester] (HELM PEPTIDE1{[CC(C)(C)OC(=O)[*:2]].W.L.A.[am]}$$$$V2.0) | 150 µM |
| CC(C)(C)OC(=O)N[C@@H](Cc1c[nH]c2ccccc12)C(=O)N1CCC[C@H]1C(=O)N[C@@H](CC(=O)O)C(N)=O [3-({1-[2-tert-Butoxycarbonylamino-3-(1H-indol-3-yl)-propionyl]-pyrrolidine-2-carbonyl}-amino)-succinamic acid] (HELM PEPTIDE1{[CC(C)(C)OC(=O)[*:2]].W.P.D.[am]}$$$$V2.0) | 100 µM |
| CC(C)CC(NC(=O)[C@H](Cc1c[nH]c2ccccc12)NC(=O)OC(C)(C)C)C(=O)N[C@@H](CC(=O)O)C(N)=O (some centres not stated) [3-{2-[2-tert-Butoxycarbonylamino-3-(1H-indol-3-yl)-propionylamino]-4-methyl-pentanoylamino}-succinamic acid] | 50 µM |
| CSCC[C@H](NC(=O)[C@H](Cc1c[nH]c2ccccc12)NC(=O)OC(C)(C)C)C(=O)N[C@@H](CC(=O)O)C(N)=O [3-{2-[2-tert-Butoxycarbonylamino-3-(1H-indol-3-yl)-propionylamino]-4-methylsulfanyl-butyrylamino}-succinamic acid] (HELM PEPTIDE1{[CC(C)(C)OC(=O)[*:2]].W.M.D.[am]}$$$$V2.0) | 30 µM |
| CCCC[C@H](NC(=O)[C@H](Cc1c[nH]c2ccccc12)NC(=O)OC(C)(C)C)C(=O)N[C@@H](CC(=O)O)C(N)=O [3-{2-[2-tert-Butoxycarbonylamino-3-(1H-indol-3-yl)-propionylamino]-hexanoylamino}-succinamic acid] (HELM PEPTIDE1{[CC(C)(C)OC(=O)[*:2]].W.[Nle].D.[am]}$$$$V2.0) | 30 µM |
